The nature of data set [1]: Compound cytotoxicity, XTT-based colorimetric assay. To be noted: human, uninfected MT2 cells, day 4, XTT. In kind it is cell-based. A digest of the protocol: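 Run under the antiviral-assay protocol but without virus. Viability was read on day 4 and CC50 values were derived from the readout.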
On the technique in general: Tetrazolium assays rely on reduction of a dye to a coloured formazan, in cell work by metabolically active cells.

The test system of data set [2] is recombinant NL4-3 virus (nef section replaced with Renilla luciferase gene) in MT-2 cells. The data set is described as follows: HIV cell culture assay (antiviral activity, luciferase readout). As to conditions: Renilla, NL43, MT-2 cells infected for 4-5 days with recombinant NL4-3 Renilla luciferase virus, serial dilutions of compound. In kind it is cell-based. A digest of the protocol:
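Test compound in serial dilution was present while MT-2 cells were infected for 4–5 days with recombinant NL4-3 virus made in 293T cells. Antiviral activity was quantified as Renilla luciferase activity, read with a live-cell substrate. EC50 came from the median-effect equation.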

Structures are written as SMILES. pEC50: −log10 of the molar value. Some results are limits rather than exact numbers.

Broadly, the CC50 is the concentration that lowers cell viability or growth by half. In general, pEC50 refers to −log10 of the EC50, conventionally taken in molar units. `CS(=O)(=O)Nc1nn(CC(F)(F)F)c2c(-n3c([C@H](Cc4cc(F)cc(F)c4)NC(=O)Cn4nc(C(F)(F)F)c5c4C(F)(F)[C@@H]4C[C@H]54)nc4cc(-c5ccccc5F)ccc4c3=O)ccc(Cl)c12` [Example 182, N-((S)-1-(3-(4-chloro-3-(methylsulfonamido)-1-(2,2,2-trifluoroethyl)-1H-indazol-7-yl)-7-(2-fluorophenyl)-4-oxo-3,4-dihydroquinazolin-2-yl)-2-(3,5-difluorophenyl)ethyl)-2-((3bS,4aR)-5,5-difluoro-3-(trifluoromethyl)-3b,4,4a,5-tetrahydro-1H-cyclopropa[3,4]cyclopenta[1,2-c]pyrazol-1-yl)acetamide]: the CC50 at 4 day in data set [1] was above 500 nM. Moreover, the pEC50 in data set [2] was 9.06.

For `COc1ccc(-c2ccc3c(=O)n(-c4ccc(S(=O)(=O)N5CCOCC5)cc4)c([C@H](Cc4cc(F)cc(F)c4)NC(=O)Cn4nc(C(F)F)c5c4C(F)(F)[C@@H]4C[C@H]54)nc3c2)cn1` [Example 112, 2-((3bS,4aR)-3-(difluoromethyl)-5,5-difluoro-3b,4,4a,5-tetrahydro-1H-cyclopropa[3,4]cyclopenta[1,2-c]pyrazol-1-yl)-N-((S)-2-(3,5-difluorophenyl)-1-(7-(6-methoxypyridin-3-yl)-3-(4-(morpholinosulfonyl)phenyl)-4-oxo-3,4-dihydroquinazolin-2-yl)ethyl)acetamide], the CC50 at 4 day in data set [1] was above 1000 nM. Further, the pEC50 in data set [2] was 8.40.

For the compound `O=C(Cn1nc(C(F)F)c2c1C(F)(F)[C@@H]1C[C@H]21)N[C@@H](Cc1cc(F)cc(F)c1)c1nc2cc(-c3ccc(F)cc3F)ccc2c(=O)n1-c1ccc(S(=O)(=O)N2CCOCC2)cc1` [Example 22, 2-((3bS,4aR)-3-(difluoromethyl)-5,5-difluoro-3b,4,4a,5-tetrahydro-1H-cyclopropa[3,4]cyclopenta[1,2-c]pyrazol-1-yl)-N-((S)-2-(3,5-difluorophenyl)-1-(7-(2,4-difluorophenyl)-3-(4-(morpholinosulfonyl)phenyl)-4-oxo-3,4-dihydroquinazolin-2-yl)ethyl)acetamide], the CC50 at 4 day in data set [1] was above 1000 nM. In addition, the pEC50 in data set [2] was 8.10.

`Cn1nc(NS(C)(=O)=O)c2c(Cl)ccc(-n3c([C@H](Cc4cc(F)cc(F)c4)NC(=O)Cn4nc(C(F)F)c5c4C(F)(F)[C@@H]4C[C@H]54)nc4cc(-c5ccccc5Oc5ccccc5)ccc4c3=O)c21` (atropisomer, axis not shown; (aR)) [Example 107, N-((S)-1-(3-(4-chloro-1-methyl-3-(methylsulfonamido)-1H-indazol-7-yl)-4-oxo-7-(2-phenoxyphenyl)-3,4-dihydroquinazolin-2-yl)-2-(3,5-difluorophenyl)ethyl)-2-((3bS,4aR)-3-(difluoromethyl)-5,5-difluoro-3b,4,4a,5-tetrahydro-1H-cyclopropa[3,4]cyclopenta[1,2-c]pyrazol-1-yl)acetamide] returned a CC50 at 4 day in data set [1] above 1000 nM. Moreover, in data set [2], the pEC50 was 8.00.

`Cn1nc(NS(C)(=O)=O)c2c(Cl)ccc(-n3c([C@H](Cc4cc(F)cc(F)c4)NC(=O)Cn4nc(C(F)F)c5c4C(F)(F)[C@@H]4C[C@H]54)nc4cc(-c5ccc(Oc6ccccc6)cc5)ccc4c3=O)c21` (atropisomer, axis not shown; (aR)) [Example 14, N-((S)-1-(3-(4-chloro-1-methyl-3-(methylsulfonamido)-1H-indazol-7-yl)-4-oxo-7-(4-phenoxyphenyl)-3,4-dihydroquinazolin-2-yl)-2-(3,5-difluorophenyl)ethyl)-2-((3bS,4aR)-3-(difluoromethyl)-5,5-difluoro-3b,4,4a,5-tetrahydro-1H-cyclopropa[3,4]cyclopenta[1,2-c]pyrazol-1-yl)acetamide] showed a CC50 at 4 day in data set [1] above 1000 nM. Moreover, the pEC50 in data set [2] was 8.01.

In data set [1], `Cn1nc(NS(C)(=O)=O)c2c(Cl)ccc(-n3c([C@H](Cc4cc(F)cc(F)c4)NC(=O)Cn4nc(C(F)F)c5c4C(F)(F)[C@@H]4C[C@H]54)nc4cc(-c5ccccc5S(C)(=O)=O)ccc4c3=O)c21` (atropisomer, axis not shown; (aR)) [Example 109, N-((S)-1-(3-(4-chloro-1-methyl-3-(methylsulfonamido)-1H-indazol-7-yl)-7-(2-(methylsulfonyl)phenyl)-4-oxo-3,4-dihydroquinazolin-2-yl)-2-(3,5-difluorophenyl)ethyl)-2-((3bS,4aR)-3-(difluoromethyl)-5,5-difluoro-3b,4,4a,5-tetrahydro-1H-cyclopropa[3,4]cyclopenta[1,2-c]pyrazol-1-yl)acetamide] came in with a CC50 at 4 day above 1000 nM. Moreover, in data set [2], the pEC50 is 9.96.

`Cc1nccnc1-c1ccc2c(=O)n(-c3ccc(Cl)c4c(NS(C)(=O)=O)nn(CC(F)F)c34)c([C@H](Cc3cc(F)cc(F)c3)NC(=O)Cn3nc(C(F)F)c4c3C(F)(F)[C@@H]3C[C@H]43)nc2c1` (atropisomer, axis not shown; (aR)) [Example 125, N-((S)-1-(3-(4-chloro-1-(2,2-difluoroethyl)-3-(methylsulfonamido)-1H-indazol-7-yl)-7-(3-methylpyrazin-2-yl)-4-oxo-3,4-dihydroquinazolin-2-yl)-2-(3,5-difluorophenyl)ethyl)-2-((3bS,4aR)-3-(difluoromethyl)-5,5-difluoro-3b,4,4a,5-tetrahydro-1H-cyclopropa[3,4]cyclopenta[1,2-c]pyrazol-1-yl)acetamide]: in data set [1], the CC50 at 4 day was above 500 nM. In data set [2], the pEC50 is 10.27.

In data set [1], `Cn1nc(NS(C)(=O)=O)c2c(Cl)ccc(-n3c([C@H](Cc4cc(F)cc(F)c4)NC(=O)Cn4nc(C(F)F)c5c4C(F)(F)[C@@H]4C[C@H]54)nc4cc(-c5ccc(C(C)(C)O)cc5)ccc4c3=O)c21` (atropisomer, axis not shown; (aR)) [Example 18, N-((S)-1-(3-(4-chloro-1-methyl-3-(methylsulfonamido)-1H-indazol-7-yl)-7-(4-(2-hydroxypropan-2-yl)phenyl)-4-oxo-3,4-dihydroquinazolin-2-yl)-2-(3,5-difluorophenyl)ethyl)-2-((3bS,4aR)-3-(difluoromethyl)-5,5-difluoro-3b,4,4a,5-tetrahydro-1H-cyclopropa[3,4]cyclopenta[1,2-c]pyrazol-1-yl)acetamide] gave a CC50 at 4 day above 1000 nM. In addition, the pEC50 in data set [2] is 9.47.

In data set [1], `Cc1nccnc1-c1ccc2c(=O)n(-c3ccc(Cl)c4c(NS(=O)(=O)C5CC5)nn(CC(F)F)c34)c([C@H](Cc3cc(F)cc(F)c3)NC(=O)Cn3nc(C(F)F)c4c3C(F)(F)[C@@H]3C[C@H]43)nc2c1` (atropisomer, axis not shown; (aR)) [Example 126, N-((S)-1-(3-(4-chloro-3-(cyclopropanesulfonamido)-1-(2,2-difluoroethyl)-1H-indazol-7-yl)-7-(3-methylpyrazin-2-yl)-4-oxo-3,4-dihydroquinazolin-2-yl)-2-(3,5-difluorophenyl)ethyl)-2-((3bS,4aR)-3-(difluoromethyl)-5,5-difluoro-3b,4,4a,5-tetrahydro-1H-cyclopropa[3,4]cyclopenta[1,2-c]pyrazol-1-yl)acetamide] yielded a CC50 at 4 day above 500 nM. For the same compound, the negative-log EC50 (pEC50) in data set [2] was 10.28.

Regarding `O=C(Cn1ccc(C2CC2)n1)N[C@@H](Cc1cc(F)cc(F)c1)c1nc2cc(-c3ccccc3)ccc2c(=O)n1-c1ccc(S(=O)(=O)N2CCOCC2)cc1` [Example 144, (S)-2-(3-cyclopropyl-1H-pyrazol-1-yl)-N-(2-(3,5-difluorophenyl)-1-(3-(4-(morpholinosulfonyl)phenyl)-4-oxo-7-phenyl-3,4-dihydroquinazolin-2-yl)ethyl)acetamide], the CC50 at 4 day in data set [1] is above 500 nM. Also, the pEC50 in data set [2] was 7.80.

In data set [1], `O=C(Cn1ccc(C2CC2)n1)N[C@@H](Cc1cc(F)cc(F)c1)c1nc2cc(-c3c(Cl)cccc3Cl)ccc2c(=O)n1-c1ccc(S(=O)(=O)N2CCOCC2)cc1` [Example 114, (S)-2-(3-cyclopropyl-1H-pyrazol-1-yl)-N-(1-(7-(2,6-dichlorophenyl)-3-(4-(morpholinosulfonyl)phenyl)-4-oxo-3,4-dihydroquinazolin-2-yl)-2-(3,5-difluorophenyl)ethyl)acetamide] showed a CC50 at 4 day above 1000 nM. Moreover, in data set [2], the pEC50 is 7.82.

For `Cn1nc(NS(C)(=O)=O)c2c(Cl)ccc(-n3c([C@H](Cc4cc(F)cc(F)c4)NC(=O)Cn4nc(C(F)F)c5c4C(F)(F)[C@@H]4C[C@H]54)nc4cc(-c5ccc(Cl)cc5Cl)ccc4c3=O)c21` (atropisomer, axis not shown; (aR)) [Example 63, N-((S)-1-(3-(4-chloro-1-methyl-3-(methylsulfonamido)-1H-indazol-7-yl)-7-(2,4-dichlorophenyl)-4-oxo-3,4-dihydroquinazolin-2-yl)-2-(3,5-difluorophenyl)ethyl)-2-((3bS,4aR)-3-(difluoromethyl)-5,5-difluoro-3b,4,4a,5-tetrahydro-1H-cyclopropa[3,4]cyclopenta[1,2-c]pyrazol-1-yl)acetamide], the CC50 at 4 day in data set [1] is above 1000 nM. Also, in data set [2], the pEC50 is 8.15.

Consider `Cc1cc(C(F)F)nn1CC(=O)N[C@@H](Cc1cc(F)cc(F)c1)c1nc2cc(-c3ccccc3F)ccc2c(=O)n1-c1ccc(Cl)c2c(NS(=O)(=O)C3CC3)nn(CC(F)F)c12` [Example 137, (S)-N-(1-(3-(4-chloro-3-(cyclopropanesulfonamido)-1-(2,2-difluoroethyl)-1H-indazol-7-yl)-7-(2-fluorophenyl)-4-oxo-3,4-dihydroquinazolin-2-yl)-2-(3,5-difluorophenyl)ethyl)-2-(3-(difluoromethyl)-5-methyl-1H-pyrazol-1-yl)acetamide], for which the CC50 at 4 day in data set [1] is above 1000 nM. Moreover, the pEC50 in data set [2] is 8.08.

These data come from US11505543B2, “4-oxo-3,4-dihydroquinazoline compounds as inhibitors of human immunodeficiency virus replication” (VIIV HEALTHCARE UK (NO.5) LIMITED, priority 2018, dated 2022).
